Experimental data published in US12459918B2, “Isoquinolinone derivatives serving as rock protein kinase inhibitors and use thereof” (GUANGZHOU OCUSUN OPHTHALMIC BIOTECHNOLOGY CO., LTD., priority 2019, dated 2025).

System: New Zealand rabbits with normal intraocular pressure
Experiment: Reduction of intraocular pressure by repeated eye-drop administration for 14 days, experiment operation 1
Assay type: in vivo
Settings: for Change of intraocular pressure: negative control minus group
From the text: Experimental example 4. Experiment on reduction of intraocular pressure and ocular toxicity of New Zealand rabbits with normal intraocular pressure by repeated eye-drop administration for 14 days
The intraocular pressure reduction action and the potential ocular toxicity of compound 63 were explored by 14 days of repeated eye-drop administration in rabbits with normal intraocular pressure.
Male New Zealand rabbits, aged 97-127 days, weighted 2.6-3.5 kg, purchased from PizhouDongfang Breeding Co. Ltd.
The male New Zealand rabbits were randomly divided into 7 groups, with 6 rabbits per group. Animals were randomly divided according to body weight Animals in 1-7 groups were eye-dropped with solvent/control sample/test sample in both eyes, the volume of the administration was all 50 μL/eye, once per day for 14 consecutive days, and the day of the administration was recorded as Day 1. On Day 1, intraocular pressure of the animals was measured before the administration and in 1, 2, 4, 6, 8 and 10 hours after the administration, respectively; on Days 2-14, intraocular pressure of the animals was measured in 1 hour after daily administration for the group administered with K-115, and intraocular pressure of the animal was measured in 4 hours after daily administration for the other groups.

[1] = 2.0 mg/mL once per day, Day 2, 4 hours after daily administration
[2] = 2.0 mg/mL once per day, Day 3, 4 hours after daily administration
[3] = 2.0 mg/mL once per day, Day 4, 4 hours after daily administration
[4] = 2.0 mg/mL once per day, Day 5, 4 hours after daily administration
[5] = 2.0 mg/mL once per day, Day 6, 4 hours after daily administration
[6] = 2.0 mg/mL once per day, Day 7, 4 hours after daily administration
[7] = 4.0 mg/mL once per day, Day 2, 4 hours after daily administration
[8] = 4.0 mg/mL once per day, Day 3, 4 hours after daily administration
[9] = 4.0 mg/mL once per day, Day 4, 4 hours after daily administration
[10] = 4.0 mg/mL once per day, Day 5, 4 hours after daily administration
[11] = 4.0 mg/mL once per day, Day 6, 4 hours after daily administration
[12] = 4.0 mg/mL once per day, Day 7, 4 hours after daily administration
[13] = 8.0 mg/mL once per day, Day 2, 4 hours after daily administration
[14] = 8.0 mg/mL once per day, Day 3, 4 hours after daily administration
[15] = 8.0 mg/mL once per day, Day 4, 4 hours after daily administration
[16] = 8.0 mg/mL once per day, Day 5, 4 hours after daily administration
[17] = 8.0 mg/mL once per day, Day 6, 4 hours after daily administration
[18] = 8.0 mg/mL once per day, Day 7, 4 hours after daily administration

SMILES: Cc1ccc(C(=O)OCn2cc(C)c3c(S(=O)(=O)N4CC[C@H](N)C4)cccc3c2=O)c(C)c1 [Compound 63]
- Change of intraocular pressure (1.0 mg/mL, Day 1, before administration): −0.05 mmHg
- Mean intraocular pressure of both eyes (2.0 mg/mL both eyes, Day 1, 1 hour after administration): 8.56 mmHg
- Mean intraocular pressure of both eyes (2.0 mg/mL both eyes, Day 1, 2 hours after administration): 7.47 mmHg
- Mean intraocular pressure of both eyes (2.0 mg/mL both eyes, Day 1, 4 hours after administration): 7.47 mmHg
- Mean intraocular pressure of both eyes (2.0 mg/mL both eyes, Day 1, 6 hours after administration): 7.25 mmHg
- Mean intraocular pressure of both eyes (2.0 mg/mL both eyes, Day 1, 8 hours after administration): 8.44 mmHg
- Mean intraocular pressure of both eyes (2.0 mg/mL both eyes, Day 1, 10 hours after administration): 9.67 mmHg
- Mean intraocular pressure of both eyes (2.0 mg/mL both eyes, Day 1, before administration): 9.67 mmHg
- Mean intraocular pressure of both eyes [1]: 7.03 mmHg
- Change of intraocular pressure [1]: 4.05 mmHg
- Mean intraocular pressure of both eyes [2]: 7.25 mmHg
- Change of intraocular pressure [2]: 3.14 mmHg
- Mean intraocular pressure of both eyes [3]: 6.86 mmHg
- Change of intraocular pressure [3]: 3.75 mmHg
- Mean intraocular pressure of both eyes [4]: 6.47 mmHg
- Change of intraocular pressure [4]: 4.5 mmHg
- Mean intraocular pressure of both eyes [5]: 5.92 mmHg
- Change of intraocular pressure [5]: 3.39 mmHg
- Mean intraocular pressure of both eyes [6]: 5.78 mmHg
- Change of intraocular pressure [6]: 4.28 mmHg
- Change of intraocular pressure (2.0 mg/mL once per day, Day 8, 4 hours after daily administration): 4.53 mmHg
- Change of intraocular pressure (2.0 mg/mL once per day, Day 9, 4 hours after daily administration): 3.72 mmHg
- Change of intraocular pressure (2.0 mg/mL once per day, Day 10, 4 hours after daily administration): 3.81 mmHg
- Change of intraocular pressure (2.0 mg/mL once per day, Day 11, 4 hours after daily administration): 3.66 mmHg
- Change of intraocular pressure (2.0 mg/mL once per day, Day 12, 4 hours after daily administration): 3.5 mmHg
- Change of intraocular pressure (2.0 mg/mL once per day, Day 13, 4 hours after daily administration): 4.28 mmHg
- Change of intraocular pressure (2.0 mg/mL once per day, Day 14, 4 hours after daily administration): 3.91 mmHg
- Change of intraocular pressure (2.0 mg/mL, Day 1, 1 hour after administration): 1.75 mmHg
- Change of intraocular pressure (2.0 mg/mL, Day 1, 2 hours after administration): 3.5 mmHg
- Change of intraocular pressure (2.0 mg/mL, Day 1, 4 hours after administration): 3.84 mmHg
- Change of intraocular pressure (2.0 mg/mL, Day 1, 6 hours after administration): 4.69 mmHg
- Change of intraocular pressure (2.0 mg/mL, Day 1, 8 hours after administration): 4.53 mmHg
- Change of intraocular pressure (2.0 mg/mL, Day 1, 10 hours after administration): 4.75 mmHg
- Change of intraocular pressure (2.0 mg/mL, Day 1, before administration): 0.22 mmHg
- Mean intraocular pressure of both eyes (4 mg/mL both eyes, Day 1, 1 hour after administration): 10.44 mmHg
- Mean intraocular pressure of both eyes (4 mg/mL both eyes, Day 1, 2 hours after administration): 7.81 mmHg
- Mean intraocular pressure of both eyes (4 mg/mL both eyes, Day 1, 4 hours after administration): 6.47 mmHg
- Mean intraocular pressure of both eyes (4 mg/mL both eyes, Day 1, 6 hours after administration): 6.22 mmHg
- Mean intraocular pressure of both eyes (4 mg/mL both eyes, Day 1, 8 hours after administration): 7.33 mmHg
- Mean intraocular pressure of both eyes (4 mg/mL both eyes, Day 1, 10 hours after administration): 8.64 mmHg
- Mean intraocular pressure of both eyes (4 mg/mL both eyes, Day 1, before administration): 9.67 mmHg
- Mean intraocular pressure of both eyes [7]: 6.53 mmHg
- Change of intraocular pressure [7]: 4.55 mmHg
- Mean intraocular pressure of both eyes [8]: 5.58 mmHg
- Change of intraocular pressure [8]: 4.81 mmHg
- Mean intraocular pressure of both eyes [9]: 5.53 mmHg
- Change of intraocular pressure [9]: 5.08 mmHg
- Mean intraocular pressure of both eyes [10]: 6.61 mmHg
- Change of intraocular pressure [10]: 4.36 mmHg
- Mean intraocular pressure of both eyes [11]: 5.47 mmHg
- Change of intraocular pressure [11]: 3.84 mmHg
- Mean intraocular pressure of both eyes [12]: 5.56 mmHg
- Change of intraocular pressure [12]: 4.5 mmHg
- Change of intraocular pressure (4.0 mg/mL once per day, Day 8, 4 hours after daily administration): 4.53 mmHg
- Change of intraocular pressure (4.0 mg/mL once per day, Day 9, 4 hours after daily administration): 3.97 mmHg
- Change of intraocular pressure (4.0 mg/mL once per day, Day 10, 4 hours after daily administration): 4.67 mmHg
- Change of intraocular pressure (4.0 mg/mL once per day, Day 11, 4 hours after daily administration): 3.86 mmHg
- Change of intraocular pressure (4.0 mg/mL once per day, Day 12, 4 hours after daily administration): 3.64 mmHg
- Change of intraocular pressure (4.0 mg/mL once per day, Day 13, 4 hours after daily administration): 4.36 mmHg
- Change of intraocular pressure (4.0 mg/mL once per day, Day 14, 4 hours after daily administration): 4.64 mmHg
- Change of intraocular pressure (4 mg/mL, Day 1, 1 hour after administration): −0.13 mmHg
- Change of intraocular pressure (4 mg/mL, Day 1, 2 hours after administration): 3.16 mmHg
- Change of intraocular pressure (4 mg/mL, Day 1, 4 hours after administration): 4.84 mmHg
- Change of intraocular pressure (4 mg/mL, Day 1, 6 hours after administration): 5.72 mmHg
- Change of intraocular pressure (4 mg/mL, Day 1, 8 hours after administration): 5.64 mmHg
- Change of intraocular pressure (4 mg/mL, Day 1, 10 hours after administration): 5.78 mmHg
- Change of intraocular pressure (4 mg/mL, Day 1, before administration): 0.22 mmHg
- Mean intraocular pressure of both eyes (8.0 mg/mL both eyes, Day 1, 1 hour after administration): 7.69 mmHg
- Mean intraocular pressure of both eyes (8.0 mg/mL both eyes, Day 1, 2 hours after administration): 6.39 mmHg
- Mean intraocular pressure of both eyes (8.0 mg/mL both eyes, Day 1, 4 hours after administration): 7.06 mmHg
- Mean intraocular pressure of both eyes (8.0 mg/mL both eyes, Day 1, 6 hours after administration): 7.11 mmHg
- Mean intraocular pressure of both eyes (8.0 mg/mL both eyes, Day 1, 8 hours after administration): 7.22 mmHg
- Mean intraocular pressure of both eyes (8.0 mg/mL both eyes, Day 1, 10 hours after administration): 7.97 mmHg
- Mean intraocular pressure of both eyes (8.0 mg/mL both eyes, Day 1, before administration): 10.17 mmHg
- Mean intraocular pressure of both eyes [13]: 6.33 mmHg
- Change of intraocular pressure [13]: 4.75 mmHg
- Mean intraocular pressure of both eyes [14]: 5.78 mmHg
- Change of intraocular pressure [14]: 4.61 mmHg
- Mean intraocular pressure of both eyes [15]: 5.97 mmHg
- Change of intraocular pressure [15]: 4.64 mmHg
- Mean intraocular pressure of both eyes [16]: 6.42 mmHg
- Change of intraocular pressure [16]: 4.55 mmHg
- Mean intraocular pressure of both eyes [17]: 5.56 mmHg
- Change of intraocular pressure [17]: 3.75 mmHg
- Mean intraocular pressure of both eyes [18]: 5.28 mmHg
- Change of intraocular pressure [18]: 4.78 mmHg
- Change of intraocular pressure (8.0 mg/mL once per day, Day 8, 4 hours after daily administration): 5.59 mmHg
- Change of intraocular pressure (8.0 mg/mL once per day, Day 9, 4 hours after daily administration): 4.25 mmHg
- Change of intraocular pressure (8.0 mg/mL once per day, Day 10, 4 hours after daily administration): 4.19 mmHg
- Change of intraocular pressure (8.0 mg/mL once per day, Day 11, 4 hours after daily administration): 4.16 mmHg
- Change of intraocular pressure (8.0 mg/mL once per day, Day 12, 4 hours after daily administration): 3.97 mmHg
- Change of intraocular pressure (8.0 mg/mL once per day, Day 13, 4 hours after daily administration): 4.72 mmHg
- Change of intraocular pressure (8.0 mg/mL once per day, Day 14, 4 hours after daily administration): 4.03 mmHg
- Change of intraocular pressure (8.0 mg/mL, Day 1, 1 hour after administration): 2.62 mmHg
- Change of intraocular pressure (8.0 mg/mL, Day 1, 2 hours after administration): 4.58 mmHg
- Change of intraocular pressure (8.0 mg/mL, Day 1, 4 hours after administration): 4.25 mmHg
- Change of intraocular pressure (8.0 mg/mL, Day 1, 6 hours after administration): 4.83 mmHg
- Change of intraocular pressure (8.0 mg/mL, Day 1, 8 hours after administration): 5.75 mmHg
- Change of intraocular pressure (8.0 mg/mL, Day 1, 10 hours after administration): 6.45 mmHg
- Change of intraocular pressure (8.0 mg/mL, Day 1, before administration): −0.28 mmHg
- Efficacy of a single dose (highest hypotensive effect and action duration) (all test doses (0.5-8.0 mg/mL), compared with K-115): superior efficacy
- Hypotensive effect after 14 days of continuous administration (dose of 0.5 mg/mL): maintain a significant hypotensive effect
